Data as given in patent US5686461A, “Indole derivatives” (Glaxo Wellcome S.p.A., priority 1993, dated 1997).
Counter-ions that a name gives are not always drawn. Like-named read-outs stand apart in the source and are kept apart here.

What was measured:
[1] = test system: NMDA induced convulsions; assay: inhibition of NMDA induced convulsions in the mouse (procedure of Chiamulera C et al.); type: in vivo
Description: In this test the ability of the compound to inhibit the generalized seizures induced by an intracerebroventricular injection of NMDA in mice was examined at a number of dose levels. […] This expressed as mg/kg is referred to as the ED50 value.

[2] = target: T1, strychnine insensitive glycine binding site located on the NMDA receptor complex (Rattus norvegicus, UniProt P35439); assay: biochemical
T1 construct: from tissue

[3] = mouse, intravenous, NMDA given intracerebroventricularly, read-out: ED50 (dose required to protect 50% of the animals from the convulsive action of NMDA), iv
[4] = mouse, oral, NMDA given intracerebroventricularly, read-out: ED50 (dose required to protect 50% of the animals from the convulsive action of NMDA), po

Ki [2] [µM]	SMILES	also measured
0.01	O=C(/C=C/c1c(C(=O)O)[nH]c2cc(Cl)cc(Cl)c12)N[C@H]1C[C@H]2CC[C@@H]1C2 (relative stereo) [Example 11, (E) 3-[2-endo-2-norbornylcarbamoyl)ethenyl]4,6-dichloroindole-2-carboxylic acid sodium salt]	–
0.0263	O=C(/C=C/c1c(C(=O)O)[nH]c2cc(Cl)cc(Cl)c12)NC12CC3CC(CC1C3)C2 [Example 14, (E) 3-[2'-(noradamantyl-3"-aminocarbonyl)ethenyl]-4,6-dichloroindole-2-carboxylic acid sodium salt]	ED50 [1, 3]: 0.05 mg/kg; ED50 [1, 4]: 6 mg/kg
0.0251	O=C(/C=C/c1c(C(=O)O)[nH]c2cc(Cl)cc(Cl)c12)NC1C2CC3CC(C2)CC1C3 (stereo not drawn) [Example 17, (E) 3-[2'-(2"-adamantylaminocarbonyl)ethenyl]-4,6-dichloroindole-2-carboxylic acid sodium salt]	–

Continued, compound first:

SMILES	Ki [2] [µM]	also measured
O=C(/C=C/c1c(C(=O)[O-])[nH]c2cc(Cl)cc(Cl)c12)NC12CC3CC(CC(C3)C1)C2.[Na+]	–	ED50 ([1]; Mus musculus, iv, read-out: ED50 (dose required to protect 50% of the animals from the convulsive action of NMDA), iv): 0.02 mg/kg; ED50 ([1]; Mus musculus, po, read-out: ED50 (dose required to protect 50% of the animals from the convulsive action of NMDA), po): 5.47 mg/kg
O=C(/C=C/c1c(C(=O)O)[nH]c2cc(Cl)cc(Cl)c12)N[C@@H]1C[C@H]2CC[C@@H]1C2 (relative stereo) [Example 10b, (E)-3-(2'-exo-2-norbornylcarbamoyl)ethenyl)-4,6-dichloroindole-2-carboxylicacid sodium salt]	0.02	ED50 [1, 3]: 0.01 mg/kg; ED50 [1, 4]: 11.1 mg/kg
CC1(C)[C@@H]2CC[C@@]1(C)[C@@H](NC(=O)/C=C/c1c(C(=O)O)[nH]c3cc(Cl)cc(Cl)c13)C2 [Example 16, (E) 3-[2'-(1"-R-bornyl-2"-aminocarbonyl)ethenyl]-4,6-dichloroindole-2 carboxylic acid sodium salt]	0.0398	–
O=C(/C=C/c1c(C(=O)[O-])[nH]c2cc(Cl)cc(Cl)c12)NC12CC3CC(CC(C3)C1)C2.[Na+] [sodium salt]	0.0631	–
